The test system of test [1] is Trichophyton mentagrophytes. Description: Antifungal activity against Trichophyton mentagrophytes at 60 ug/disk. The format is functional, organism-based.
The next test deals with P388. Description: Cytotoxicity against mouse P388 cells. The format is functional, cell-based.
The subject of the next test is Candida albicans. In words: Antifungal activity against Candida albicans at 60 ug/disk. The format is functional, organism-based.

Molecules are shown by their SMILES. The source made the active and inactive calls. The calls are words filed in the database; no cut-off is given here.

A word on the IC50: it is the concentration at which inhibition is half-maximal. Read a low IC50 as greater potency. `CC(C)=C/C=C/[C@@]1(C)CCC[C@]2(C)Oc3ccc(O)cc3C[C@@H]12` [RICCARDIPHENOL C]: the outcome (in test [1]; with Candida albicans) was inactive. Also, the IC50 in the test on P388 was more than 25 µg/mL.

The record behind these values is ChEMBL document CHEMBL1159277, “Sesquiterpene/quinol from a New Zealand liverwort, Riccardia crassa” (J Nat Prod, 1995).
